The numbers were not newly measured in patent publication US9949941B2, “GABA analog prodrug sustained release oral dosage forms” (XENOPORT, INC., priority 2004, dated 2018), which cites them from elsewhere.

Each structure is given as a SMILES string.

For data set [1] the following is noted: dosed either orally or directly into the colon of a mammal.

As to `CC(OC(=O)NCC1(CC(=O)O)CCCCC1)OC(=O)C(C)C` (stereo not drawn) [Compound (1), 1-{[(α-isobutanoyloxyethoxy)carbonyl]aminomethyl}-1-cyclohexane acetic acid], the bioavailability as gabapentin result in data set [1] was “high bioavailability”.

For `NCC1(CC(=O)O)CCCCC1` [gabapentin], the “Tmax following administration of gabapentin alone” value (fasted and fed patients) is 2 to 4 h. Also, the “typical Tmax of immediate release gabapentin” value (immediate release gabapentin) is 2 to 4 h.
